According to patent US11725010B2, “Polyheterocyclic compounds as METTL3 inhibitors” (Storm Therapeutics Limited, priority 2019, dated 2023):
Read-outs that look alike come from different tables or passages of the source.

Columns and labels:
KASUMI-1 cells = assay: Kasumi cell assay (CellTiter-Glo cell growth); type: cell-based; settings: Homo sapiens
Protocol: Upon treatment, Kasumil cells were incubated for 10 min at RT with the CellTiter-Glo reagent (G7571, Promega). Measurement of the luminescence signal was performed on a microplate reader (Ensight, PerkinElmer).

METTL3/14 = METTL3/14 (Homo sapiens (Human), UniProt Q86U44)
Sequence of METTL3/14 (Q86U44 whole entry): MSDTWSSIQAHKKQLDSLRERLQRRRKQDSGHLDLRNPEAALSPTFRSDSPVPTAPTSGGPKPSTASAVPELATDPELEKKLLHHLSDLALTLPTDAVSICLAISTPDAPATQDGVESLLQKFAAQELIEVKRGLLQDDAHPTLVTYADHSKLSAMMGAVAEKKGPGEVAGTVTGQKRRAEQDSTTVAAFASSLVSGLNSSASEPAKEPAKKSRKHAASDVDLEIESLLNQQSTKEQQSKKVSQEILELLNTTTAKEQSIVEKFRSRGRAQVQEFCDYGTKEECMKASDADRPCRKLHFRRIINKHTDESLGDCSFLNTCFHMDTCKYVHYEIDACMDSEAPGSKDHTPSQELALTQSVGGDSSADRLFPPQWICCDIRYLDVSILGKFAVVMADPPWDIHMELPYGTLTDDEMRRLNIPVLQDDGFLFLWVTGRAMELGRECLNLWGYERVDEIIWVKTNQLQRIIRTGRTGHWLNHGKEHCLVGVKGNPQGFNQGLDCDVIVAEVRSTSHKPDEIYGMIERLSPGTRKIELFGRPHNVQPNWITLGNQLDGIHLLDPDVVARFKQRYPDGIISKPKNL
Sequence of METTL3/14 (Q9HCE5 whole entry partner): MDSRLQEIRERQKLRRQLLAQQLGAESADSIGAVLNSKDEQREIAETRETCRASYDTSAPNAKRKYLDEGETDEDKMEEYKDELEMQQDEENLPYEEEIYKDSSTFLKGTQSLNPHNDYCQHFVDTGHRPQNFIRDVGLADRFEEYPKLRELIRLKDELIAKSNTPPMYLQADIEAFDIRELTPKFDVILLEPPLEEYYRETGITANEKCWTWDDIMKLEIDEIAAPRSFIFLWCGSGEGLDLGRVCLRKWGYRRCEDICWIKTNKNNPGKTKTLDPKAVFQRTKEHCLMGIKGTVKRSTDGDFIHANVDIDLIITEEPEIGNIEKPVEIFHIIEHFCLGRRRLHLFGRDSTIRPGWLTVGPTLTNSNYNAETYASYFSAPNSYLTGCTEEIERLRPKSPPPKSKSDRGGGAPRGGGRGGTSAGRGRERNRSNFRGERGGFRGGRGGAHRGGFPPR

Caov-3 cells = assay: Caov3 CTG proliferation assay; type: cell-based; settings: Homo sapiens
Protocol: CTG Assay (Caov3 Cell Line)
Upon treatment, Coav-3 cells were incubated for 10 min at RT with the CellTiter-Glo reagent (G7571, Promega). Measurement of the luminescence signal was performed on a microplate reader (Ensight, PerkinElmer).
Caov3 CTG Assay—Proliferation Assay

[1] = Kasumi 1, treated for 120 hours, CellTiter-Glo luminescence, read-out: KASUMI1 cells IC50
[2] = Caov-3, treated for 120 hours, CellTiter-Glo luminescence, read-out: Caov3 cells IC50
[3] = Kasumi 1, 120 h, read-out: KASUMI1 cells IC50 nM

Row | SMILES | IC50 (KASUMI-1 cells; [1]) [nM] | IC50 (METTL3/14) [nM] | IC50 (Caov-3 cells; [2]) [nM] | IC50 (KASUMI-1 cells; [3]) [nM] | IC50 (Caov-3 cells; Caov-3, 120 h, read-out: Caov3 cells IC50 nM) [nM]
1 | O=C(NCc1ccc2cc(CNCC34CC(F)(C3)C4)[nH]c2c1)c1cc(=O)n2ccccc2n1 [Compound 23, N-[(2-{[({3-fluorobicyclo[1.1.1]pentan-1-yl}methyl)amino]methyl}-1H-indol-6-yl)methyl]-4-oxo-4H-pyrido[1,2-a]pyrimidine-2-carboxamide] | 263 | 6.1 | 80.1 | – | –
2 | O=C(NCc1ccc2cc(CN[C@H]3CCC[C@H]3O)[nH]c2c1)c1cc(=O)n2ccccc2n1 [Compound 38, N-{[2-({[(1S,2R)-2-hydroxycyclopentyl]amino}methyl)-1H-indol-6-yl]methyl}-4-oxo-4H-pyrido[1,2-a]pyrimidine-2-carboxamide] | – | 6.1 | – | 2310 | 458
3 | O=C(NCc1cc2[nH]c(CNCC3CCC3)cc2cc1F)c1cc(=O)n2ccccc2n1 [Compound 41, N-[[2-[(cyclobutylmethylamino)methyl]-5-fluoro-1H-indol-6-yl]methyl]-4-oxo-pyrido[1,2-a]pyrimidine-2-carboxamide] | 309 | 6.1 | 192 | – | –
4 | O=C(NCc1ccc2cc(CN3CC4(CCC4)C3)[nH]c2c1)c1cc(=O)n2ccccc2n1 [Compound 67, N-[[2-(2-azaspiro[3.3]heptanean-2-ylmethyl)-1H-indol-6-yl]methyl]-4-oxo-pyrido[1,2-a]pyrimidine-2-carboxamide] | 1720 | 6.1 | 482 | – | –
5 | O=C(NCc1ccc2cc(CNCC34CCC(C3)C4)[nH]c2c1)c1cc(=O)n2ccccc2n1 [Compound 76, N-[(2-{[({bicyclo[2.1.1]hexan-1-yl}methyl)amino]methyl}-1H-indol-6-yl)methyl]-4-oxo-4H-pyrido[1,2-a]pyrimidine-2-carboxamide] | 698 | 6.1 | 242 | – | –
6 | CC12CC(CNCc3cc4ccc(CNC(=O)c5cc(=O)n6ccccc6n5)cc4[nH]3)(C1)C2 [Compound 77, N-[(2-{[({3-methylbicyclo[1.1.1]pentan-1-yl}methyl)amino]methyl}-1H-indol-6-yl)methyl]-4-oxo-4H-pyrido[1,2-a]pyrimidine-2-carboxamide] | 1760 | 6.1 | 701 | – | –
7 | O=C(NCc1ccc2cc(CN3CC4(CCCC4)C3)[nH]c2c1)c1cc(=O)n2ccccc2n1 [Compound 81, N-{[2-({2-azaspiro[3.4]octan-2-yl}methyl)-1H-indol-6-yl]methyl}-4-oxo-4H-pyrido[1,2-a]pyrimidine-2-carboxamide] | 1030 | 6.1 | 564 | – | –
8 | CC1(C)CN(Cc2cc3ccc(CNC(=O)c4cc(=O)n5ccccc5n4)cc3[nH]2)C1 [Compound 83, N-({2-[(3,3-dimethylazetidin-1-yl)methyl]-1H-indol-6-yl}methyl)-4-oxo-4H-pyrido[1,2-a]pyrimidine-2-carboxamide] | 3680 | – | – | – | –
9 | O=C(NCc1ccc2cc(CN3CC4(CCCCC4)C3)[nH]c2c1)c1cc(=O)n2ccccc2n1 [Compound 90, N-{[2-({2-azaspiro[3.5]nonan-2-yl}methyl)-1H-indol-6-yl]methyl}-4-oxo-4H-pyrido[1,2-a]pyrimidine-2-carboxamide] | 1250 | 6.1 | 602 | – | –
10 | CC(C)(C)C1CN(Cc2cc3ccc(CNC(=O)c4cc(=O)n5ccccc5n4)cc3[nH]2)C1 [Compound 97, N-({2-[(3-tert-butylazetidin-1-yl)methyl]-1H-indol-6-yl}methyl)-4-oxo-4H-pyrido[1,2-a]pyrimidine-2-carboxamide] | 3090 | – | 1020 | – | –
11 | CC1CC(CNCc2cc3ccc(CNC(=O)c4cc(=O)n5ccccc5n4)cc3[nH]2)C1 (stereo not shown) [Compound 99, N-{[2-({[(3-methylcyclobutyl)methyl]amino}methyl)-1H-indol-6-yl]methyl}-4-oxo-4H-pyrido[1,2-a]pyrimidine-2-carboxamide] | 3260 | – | 1090 | – | –
12 | CC(C)(C)C(C)(C)NCc1cc2ccc(CNC(=O)c3cc(=O)n4ccccc4n3)cc2[nH]1 [Compound 100, 4-oxo-N-[(2-{[(2,3,3-trimethylbutan-2-yl)amino]methyl}-1H-indol-6-yl)methyl]-4H-pyrido[1,2-a]pyrimidine-2-carboxamide] | 2540 | – | 685 | – | –
13 | N#CC12CC(CNCc3cc4ccc(CNC(=O)c5cc(=O)n6ccccc6n5)cc4[nH]3)(C1)C2 [Compound 111, N-[(2-{[({3-cyanobicyclo[1.1.1]pentan-1-yl}methyl)amino]methyl}-1H-indol-6-yl)methyl]-4-oxo-4H-pyrido[1,2-a]pyrimidine-2-carboxamide] | 2290 | – | – | – | –
14 | O=C(NCc1ccc2cc(CNC3(C4CCC4)CC3)[nH]c2c1)c1cc(=O)n2ccccc2n1 [Compound 116, N-[(2-{[(1-cyclobutylcyclopropyl)amino]methyl}-1H-indol-6-yl)methyl]-4-oxo-4H-pyrido[1,2-a]pyrimidine-2-carboxamide] | 5070 | 6.1 | – | – | –
15 | c1cc(-c2cn(Cc3ccc4cc(CNCC5CCC5)[nH]c4c3)nn2)c2cn[nH]c2c1 [Example 58, N-(cyclobutylmethyl)-1-[6-[[4-(1H-indazol-4-yl)triazol-1-yl]methyl]-1H-indol-2-yl]methanamine] | – | 6.1 | 702 | – | –
16 | c1cc(-c2cn(Cc3cnc4cc(CNCC5CCC5)[nH]c4c3)nn2)c2cn[nH]c2c1 [Example 59, N-(cyclobutylmethyl)-1-[6-[[4-(1H-indazol-4-yl)triazol-1-yl]methyl]-1H-pyrrolo[3,2-b]pyridin-2-yl]methanamine] | – | 6.1 | 524 | – | –
17 | O=c1cc(-c2cn(Cc3ccc4cc(CNCC5CCC5)[nH]c4c3)nn2)nc2ccccn12 [Example 62, 2-[1-[[2-[(cyclobutylmethylamino)methyl]-1H-indol-6-yl]methyl]triazol-4-yl]pyrido[1,2-a]pyrimidin-4-one] | – | 6.1 | 696 | – | –
18 | COc1cc(-c2cn(Cc3ccc4cc(CNCC5CCC5)[nH]c4c3)nn2)c2cncn2c1 [Example 63, N-(cyclobutylmethyl)-1-[6-[[4-(6-methoxyimidazo[1,5-a]pyridin-8-yl)triazol-1-yl]methyl]-1H-indol-2-yl]methanamine] | 869 | – | 257 | – | –
19 | CN(Cc1cc2ccc(CNC(=O)c3cc(=O)n4ccccc4n3)cc2[nH]1)CC1CCC1 [Example 70, N-[[2-[[cyclobutylmethyl(methyl)amino]methyl]-1H-indol-6-yl]methyl]-4-oxo-pyrido[1,2-a]pyrimidine-2-carboxamide] | – | – | – | 4900 | –
20 | O=C(NCc1ccc2cc(CNCC3CCC3)[nH]c2c1)c1cnc2[nH]ccc2c1 [Example 137, N-[(2-{[(cyclobutylmethyl)amino]methyl}-1H-indol-6-yl)methyl]-1H-pyrrolo[2,3-b]pyridine-5-carboxamide] | – | 6.1 | 1080 | – | –
21 | COc1cnc(C#N)c(-c2cn(Cc3ccc4cc(CNCC5CCC5)[nH]c4c3)nn2)c1 [Example 151, 3-{1-[(2-{[(Cyclobutylmethyl)amino]methyl}-1H-indol-6-yl)methyl]-1H-1,2,3-triazol-4-yl}-5-methoxy-2-pyridinecarbonitrile] | 7220 | – | 9060 | – | –
22 | N#Cc1ncc(F)cc1-c1cn(Cc2ccc3cc(CNCC4CCC4)[nH]c3c2)nn1 [Example 152, 3-(1-((2-(((cyclobutylmethyl)amino)methyl)-1H-indol-6-yl)methyl)-1H-1,2,3-triazol-4-yl)-5-fluoropicolinonitrile] | 9960 | – | 5430 | – | –
